Laboratory results from publication PMC5318439, “The Novel Toll-Like Receptor 2 Agonist SUP3 Enhances Antigen Presentation and T Cell Activation by Dendritic Cells” (Frontiers in Immunology, 2017).
Where a SMILES comes first, the peptide text is derived from it. The star is where a group is joined. X1 = CCCCCCCCCCCCCCNC(=O)OC[C@H](C*)OC(=O)NCCCCCCCCCCCCCC; Palmitoyl = CCCCCCCCCCCCCCCC(=O)*

Legend:
splenic CD11b^+ cDCs = experiment: CD86 expression on splenic CD11b+ cDCs after i.v. administration; assay type: in vivo, mice; settings: 2 nmol per mouse i.v., 1 h
Experimental: Figure 5 SUP3 enhanced antigen presentation ability of CD11b^+ conventional dendritic cells (cDCs) and production of antibodies against thymus-dependent (TD) antigens. (A) Mice were immunized by TD antigen nitrophenyl-keyhole limpet hemocyanin (NP-KLH) (5 µg per mouse) with or without SUP3 (2 nmol per mouse), Pam3 (2 nmol per mouse), or alum (3 µg per mouse) as adjuvants, respectively. Serum IgM (nitrophenyl 30mer-captured, NP30-captured), total IgG (NP30-captured), and high affinity IgG (nitrophenyl 8mer-captured, NP8-captured) specific to NP at indicated time points were examined by ELISA. […] Three days after immunization, division of OT-II CD4^+ T cells from inguinal lymph nodes were analyzed by flow cytometry (B). Absolute numbers of proliferated OT-II CD4^+ T cells were calculated in (C). […] Cells were then thoroughly washed and cocultured with CFSE-stained OT-II CD4^+ T cells for 4 days and analyzed by flow cytometry. (D) The division of OT-II cells was measured by reduced level of CFSE-labeling. (E) Absolute numbers of proliferated T cells from (D) were calculated. (F) SUP3 (2 nmol per mouse), Pam3 (2 nmol per mouse), or PBS were i.v. injected into mice for 1 h, and splenic CD11b^+ cDCs were enriched and analyzed for CD86 expression by flow cytometry. […] The cytokines from supernatant were determined by ELISA (*p < 0.05, **p < 0.01). […]

[1] = test system: OVA-specific CD8^+ T cells; experiment: OCS immunization, OVA-specific CD8+ T cells (CTL induction) in spleen; assay type: in vivo, C57BL/6 mice; settings: 10 nmol, data not shown; for CTL induction at high dose: OCS immunization; for spleen size at high dose: mice
Experimental: Splenocytes were X-ray irradiated (1500 Rad) and then coated with OVA (1 mg per spleen) in RPMI 1640 medium (Gibco 11875-119) for 30 min at 37°C. Cells were washed twice with RPMI 1640 medium. […] Seven days post-immunization, OVA-specific CD8^+ T cells in spleen were analyzed by flow cytometry by staining with fluorescence-conjugated antibodies against CD19 (eBioscinece, clone 1D3), CD3 (eBioscinece, clone 145-2C11), CD8 (eBioscinece, clone 53-6.7), and SIINFEKL/H-2Kb-Pentamer (ProImmune F093-4A).
Figure 2 SUP3 induced more vigorous cytotoxic T lymphocytes (CTLs) responses than Pam3CSK4 without excessive production of inflammatory cytokines in vivo. […] The percentages of pentamer positive cells (CD19^− CD3^+ CD8^+ SIINFEKL/H-2Kb-Pentamer^+) in spleens, i.e., the OVA-specific CD8^+ T cells, were determined by flow cytometry (A) and the statistic calculation is presented in (B). Representative data from three independent experiments with three mice in each group were presented. (C,D) Mice were immunized as in (A) for 30 days, then inoculated with OVA-expressing B16 melanoma cells (B16-OVA) (5 × 10^5 cells per mouse) by i.v. injection and analyzed for metastatic tumor formation in the lung 16 days after inoculation. Data from two independent experiments with three mice in each group were shown. […] “n.d.” indicates “not detected.” *p < 0.05, **p < 0.01. TEXT PRINTED IN THE PICTURE: (A) Pam3: Pentamer^+ (% of CD8^+ T): 1.57 (OCS) | (A) SUP3: Pentamer^+ (% of CD8^+ T): 2.98 (OCS) | (E) Pam3: IL-12p40 (ng/mL): n.d | (E) SUP3: IL-12p40 (ng/mL): n.d DOUBTS OF THE COPYIST ABOUT THIS PICTURE: Panel A also prints 0.37 for the control Non and 0.72 for the vehicle control PBS (OCS). Both are left out because they are controls, not test substances. / Panel E prints n.d for the vehicle control PBS in all four plots. These are left out for the same reason.

CCCCCCCCCCCCCCCC(=O)N[C@@H](CSC[C@@H](COC(=O)NCCCCCCCCCCCCCC)OC(=O)NCCCCCCCCCCCCCC)C(=O)NCC(=O)N[C@@H](CCCCN)C(=O)N[C@@H](CCCCN)C(=O)N[C@@H](CCCCN)C(=O)O [SUP3, (2S,5S,8S,14R,18R)-2,5,8-tris(4-aminobutyl)-4,7,10,13,21-pentaoxo-14-palmitamido-18-((tetradecylcarbamoyl)oxy)-20-oxa-16-thia-3,6,9,12,22-pentaazahexatriacontan-1-oic acid] (Palmitoyl-C(X1)GKKK-OH)
CD86 on splenic CD11b+ cDC in vivo (splenic CD11b^+ cDCs): CD86 upregulation
CTL induction at high dose [1]: decreased CTL induction
spleen size at high dose [1]: enlarged spleens

Pam3CSK4 [reference compound]
CD86 on splenic CD11b+ cDC in vivo (splenic CD11b^+ cDCs): CD86 upregulation
CTL induction at high dose [1]: did not have the same effect
spleen size at high dose [1]: did not have the same effect
